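Method: 48-hour compound exposure of cells in 96-well plates, five concentrations, linear interpolation of endpoints. GI50 is the concentration that inhibits growth by half. TGI: total growth inhibition.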
Assays:
Assay in all cases: NCI-60 cell line screen, 48 h
[1] = test system: DU-145 prostate
[2] = test system: MCF7 breast
[3] = test system: SN12C renal
[4] = test system: A549 NSCLC
[5] = test system: UACC-62 melanoma
[6] = test system: CCRF-CEM leukemia
[7] = test system: KM12 colon
[8] = test system: COLO 205 colon
[9] = test system: SF-268 CNS
[10] = test system: M14 melanoma
[11] = test system: OVCAR-8 ovarian
[12] = test system: OVCAR-4 ovarian
[13] = test system: ACHN renal
[14] = test system: U251 CNS
[15] = test system: HCC-2998 colon
[16] = test system: HCT-15 colon
[17] = test system: K-562 leukemia
[18] = test system: SK-MEL-2 melanoma
[19] = test system: UO-31 renal
[20] = test system: SK-MEL-5 melanoma
[21] = test system: PC-3 prostate
[22] = test system: TK-10 renal
[23] = test system: NCI-H522 lung
[24] = test system: LOX IMVI melanoma
[25] = test system: HCT-116 colon
[26] = test system: T-47D breast
[27] = test system: SF-539 CNS

O=C(COc1ccc(/C=C2\COc3ccccc3C2=O)cc1)Nc1nccs1
GI50 [1]: 4.8 µM | TGI [1]: 14.8 µM | GI50 [2]: 3.92 µM | TGI [2]: 14.2 µM | GI50 [3]: 5.69 µM | TGI [3]: 25.7 µM | GI50 [4]: 14.3 µM | TGI [4]: 47.4 µM | GI50 [5]: 7.69 µM | TGI [5]: 21.1 µM | GI50 [6]: 1.61 µM | TGI [6]: 6.39 µM | GI50 [7]: 3.28 µM | TGI [7]: 10.5 µM | GI50 [8]: 14.6 µM | TGI [8]: 29 µM | GI50 [9]: 6.81 µM | TGI [9]: 21.7 µM | GI50 [10]: 6.71 µM | TGI [10]: 20 µM | GI50 [11]: 4.49 µM | TGI [11]: 45.2 µM | GI50 [12]: 20.5 µM | TGI [12]: 68.5 µM | GI50 [13]: 16.6 µM | TGI [13]: 42.3 µM | GI50 [14]: 6.29 µM | TGI [14]: 19.1 µM | GI50 [15]: 0.828 µM | TGI [15]: 3.26 µM | GI50 [16]: 5.05 µM | TGI [16]: 23.8 µM | GI50 [17]: 1.6 µM | TGI [17]: 4.64 µM | GI50 [18]: 10.8 µM | TGI [18]: 24 µM | GI50 [19]: 11.9 µM | TGI [19]: 25.5 µM | GI50 [20]: 12.8 µM | TGI [20]: 26.7 µM | GI50 [21]: 3.95 µM | TGI [21]: 28.5 µM | GI50 [22]: 28.7 µM | TGI [22]: 58.5 µM | GI50 [23]: 1.91 µM | TGI [23]: 4.39 µM | GI50 [24]: 2.64 µM | TGI [24]: 7.33 µM | GI50 [25]: 3.75 µM | TGI [25]: 12.8 µM | GI50 [26]: 16.1 µM | TGI [26]: 38.8 µM | GI50 [27]: 15 µM | TGI [27]: 29.4 µM

Source: PubChem BioAssay (NCI)
